# Measurements reported in patent US8748339B2, “Synergistic fungicidal mixtures” (priority 2008, dated 2014).
# Like-named read-outs stand apart in the source and are kept apart here.
# Key:
# Assay type in all cases: cell-based
# Fusarium culmorum = test: Activity against Fusarium culmorum in the microtiter test (Fusacu); settings: single active compound, day 7 after inoculation
# Septoria tritici = test: Activity against leaf blotch on wheat caused by Septoria tritici in the microtiter test (Septtr); settings: single active compound, day 7 after inoculation
# Pyrenophora teres = test: Activity against Pyrenophora teres in the microtiter test (Pyrnte); settings: single active compound, day 7 after inoculation
# Phytophthora infestans = settings: single active compound, 7 days after inoculation
molecule,measurement,setting,value
"COC(=O)N(OC)c1ccccc1COc1ccn(-c2ccc(Cl)cc2)n1 [Pyraclostrobin, methyl N-{2-[1-(4-chlorophenyl)-1H-pyrazol-3-yloxymethyl]phenyl}(N-methoxy)carbamate]",Observed efficacy [%],Fusarium culmorum; 0.25 ppm,5%
"N#Cc1c(Cl)c(Cl)c(Cl)c(C#N)c1Cl [Chlorothalonil, 2,4,5,6-tetrachloroisophthalonitrile]",Observed efficacy [%],Septoria tritici; 0.25 ppm,46%
"COC=C(C(=O)OC)c1ccccc1COc1cccc(C(F)(F)F)n1 [Picoxystrobin, methyl 3-methoxy-2-[2-(6-trifluoromethylpyridin-2-yloxymethyl)phenyl]-acrylate]",Observed efficacy [%],Pyrenophora teres; 0.016 ppm,31%
"Cc1cc(C2CC2)nc(Nc2ccccc2)n1 [Cyprodinil, (4-cyclopropyl-6-methylpyrimidin-2-yl)phenylamine]",Observed efficacy [%],Septoria tritici; 1 ppm,13%
"C=CCSC(=O)n1c(N)c(-c2ccccc2C)c(=O)n1C(C)C [I.1, 5-amino-2-isopropyl-3-oxo-4-o-tolyl-2,3-dihydro-pyrazole-1-carbothioic acid ally ester]",Observed efficacy [%],Pyrenophora teres; 1 ppm,34%
same,Observed efficacy [%],Phytophthora infestans; 16 ppm,16%
same,Observed efficacy [%],Phytophthora infestans; 63 ppm,37%
same,Observed efficacy [%],Fusarium culmorum; 63 ppm,14%
same,Observed efficacy [%],Septoria tritici; 4 ppm,37%
zinc propylenebis(dithiocarbamate) polymer [Propineb],Observed efficacy [%],Phytophthora infestans; 1 ppm,21%
CCO[PH](=O)O [Fosetyl-Al],Observed efficacy [%],Phytophthora infestans; 16 ppm,35%
